The values below are quoted from earlier work in patent US12343434B2, “Hybrid membrane camouflaged nanomedicine loaded with oxidative phosphorylation inhibitor and preparing method thereof” (Henan University, priority 2021, dated 2025).

For the data set the following is noted: background statement.

As for `CCc1n(CC(=O)O[C@@H]2C[C@H](C)CC[C@H]2C(C)C)c2ccccc2[n+]1C.[Cl-]` [Gboxin, 1-carboxymethyl-2-ethyl-3-methyl-1H-benzimidazole-3-ammonium L-menthol ester chloride], the blood half-life entry is “extremely short”.
